Strand notation (5' to 3'): a small letter for the sugar, then the base; units joined by * are phosphorothioate-linked, units joined directly phosphodiester-linked; [ ] holds rarer units or linkages, { } end groups; capitals alone tell only the bases. [ms] = mesyl phosphoramidate linkage; k = constrained ethyl (cEt); [5mC] = 5-methylcytosine; d = 2'-deoxy (DNA)
How the values were obtained:
human APOE RNA [1] = test: Potency (dose response, ED50) in APOE C57BL/6NTac-Apoeem7250 knock-in mice, 8 weeks (Example 15); format: in vivo
Procedure: (§1) Modified oligonucleotides described above were tested in the APOE C57BL/6NTac-Apoeem7250 knock-in mouse model described above.
APOE C57BL/6NTac-Apoeem7250 knock-in mice were divided into groups of 3-4 mice each. A group of 4 mice received a single ICV bolus with PBS as a negative control.
Eight weeks post treatment, mice were sacrificed, and RNA was extracted from cortical brain tissue and spinal cord for quantitative real-time RT-PCR analysis of RNA expression of […] using human primer probe set RTS3073 (described herein above). APOE RNA levels were normalized to mouse Ppia. Mouse Ppia was amplified using primer probe set m_cyclo24 (described herein above). Results are presented as percent human APOE RNA relative to the amount of APOE RNA in PBS treated animals, (% control). N.C. indicates values that were not calculated.
(§2) The half maximal effective dose (ED50) of each modified oligonucleotide was calculated using GraphPad Prism 10 software (GraphPad Software, San Diego, CA).

human APOE RNA [2] = test: Activity in APOE C57BL/6NTac-Apoeem7250 knock-in mice, single ICV bolus, 16 weeks (Example 12); format: in vivo; settings: single ICV bolus 300 μg, 16 weeks post treatment, normalized to mouse Ppia
Procedure, shortened: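 A single 300 μg intracerebroventricular dose was given, with PBS-treated mice as reference; cortical and spinal cord tissue was taken 16 weeks later. RT-qPCR quantified human APOE RNA, Ppia-normalized, expressed relative to PBS animals (% control).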

human APOE RNA [3] = test: Dose-dependent inhibition of human APOE RNA in HepG2 cells, electroporation, 50,000 cells per well, RT-PCR normalized to GAPDH (Example 4, Tables 8-10); format: cell-based
Procedure, shortened: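 Readout is percent APOE RNA versus untreated controls, measured by RT-PCR (primer probe set RTS3073) and normalized to human GAPDH. Modified oligonucleotides were delivered by electroporation at varying doses into HepG2 cells plated at 50,000 per well.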

human APOE RNA [4] = test: Potency (dose response, ED50) in APOE C57BL/6NTac-Apoeem7250 knock-in mice, 4 weeks (Example 14); format: in vivo
Procedure: as §1
APOE C57BL/6NTac-Apoeem7250 knock-in mice were divided into groups of 3-4 mice each. A group of 3-4 mice received a single ICV bolus with PBS as a negative control.
Four weeks post treatment, mice were sacrificed, and RNA was extracted from cortical brain tissue and spinal cord for quantitative real-time RT-PCR analysis of RNA expression of […] using human primer probe set RTS3073 (described herein above). APOE RNA levels were normalized to mouse Ppia. Mouse Ppia was amplified using primer probe set m_cyclo24 (described herein above). Results are presented as percent human APOE RNA relative to the amount of APOE RNA in PBS treated animals, (% control). N.C. indicates values that were not calculated. Each experiment is identified in separate tables below.
as §2

human APOE RNA [5] = test: Duration of action study in APOE C57BL/6NTac-Apoeem7250 knock-in mice (Example 16); format: in vivo; settings: 300 μg ICV
Procedure, shortened: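 Knock-in mice (2-4 per group) received a single ICV bolus of 300 μg oligonucleotide or PBS. At various timepoints, cortex and spinal cord human APOE RNA was measured by RT-qPCR (RTS3073), normalized to mouse Ppia and expressed as % of PBS control.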

[6] = cortex, single ICV bolus, GraphPad Prism 10
[7] = spinal cord, single ICV bolus, GraphPad Prism 10

## 1785599: modified oligonucleotide complementary to human APOE RNA (k[5mC]*kT*kT*dG[ms]dG[ms]dT[ms]dG[ms]dA[ms]dA[ms]dT[ms]d[5mC]*dT*dT*dT*dA*dT*kT*kA*dA[ms]kA; antisense) [compound 1785599]
Human APOE RNA [1]; cortex, ICV dose 10 μg
  APOE RNA (% control) Cortex: 94 % control
Human APOE RNA [1]; cortex, ICV dose 30 μg
  APOE RNA (% control) Cortex: 72 % control
Human APOE RNA [1]; cortex, ICV dose 100 μg
  APOE RNA (% control) Cortex: 56 % control
Human APOE RNA [1]; cortex, ICV dose 300 μg
  APOE RNA (% control) Cortex: 37 % control
Human APOE RNA [1]; cortex, ICV dose 700 μg
  APOE RNA (% control) Cortex: 25 % control
Human APOE RNA [1]; [6]
  ED 50 (μg) Cortex: 143.3 µg
Human APOE RNA [1]; spinal cord, ICV dose 10 μg
  APOE RNA (% control) Spinal Cord: 54 % control
Human APOE RNA [1]; spinal cord, ICV dose 30 μg
  APOE RNA (% control) Spinal Cord: 38 % control
Human APOE RNA [1]; spinal cord, ICV dose 100 μg
  APOE RNA (% control) Spinal Cord: 16 % control
Human APOE RNA [1]; spinal cord, ICV dose 300 μg
  APOE RNA (% control) Spinal Cord: 13 % control
Human APOE RNA [1]; spinal cord, ICV dose 700 μg
  APOE RNA (% control) Spinal Cord: 12 % control
Human APOE RNA [1]; [7]
  ED 50 (μg) Spinal Cord: 12.18 µg
Human APOE RNA [2]; cortex
  APOE RNA (% control) Cortex: 35 % control
Human APOE RNA [2]; spinal cord
  APOE RNA (% control) Spinal Cord: 54 % control
Human APOE RNA [3]; HepG2 cells, electroporation, 24-hour treatment, 5 nM, Table 8
  APOE RNA (% UTC) 5 nM: 116 % UTC
Human APOE RNA [3]; HepG2 cells, electroporation, 24-hour treatment, 13 nM, Table 8
  APOE RNA (% UTC) 13 nM: 116 % UTC
Human APOE RNA [3]; HepG2 cells, electroporation, 24-hour treatment, 33 nM, Table 8
  APOE RNA (% UTC) 33 nM: 100 % UTC
Human APOE RNA [3]; HepG2 cells, electroporation, 24-hour treatment, 82 nM, Table 8
  APOE RNA (% UTC) 82 nM: 87 % UTC
Human APOE RNA [3]; HepG2 cells, electroporation, 24-hour treatment, 205 nM, Table 8
  APOE RNA (% UTC) 205 nM: 65 % UTC
Human APOE RNA [3]; HepG2 cells, electroporation, 24-hour treatment, 512 nM, Table 8
  APOE RNA (% UTC) 512 nM: 48 % UTC
Human APOE RNA [3]; HepG2 cells, electroporation, 24-hour treatment, 1,280 nM, Table 8
  APOE RNA (% UTC) 1,280 nM: 43 % UTC
Human APOE RNA [3]; HepG2 cells, electroporation, 24-hour treatment, 3,200 nM, Table 8
  APOE RNA (% UTC) 3,200 nM: 21 % UTC
Human APOE RNA [3]; HepG2 cells, electroporation, 24-hour treatment, 8,000 nM, Table 8
  APOE RNA (% UTC) 8,000 nM: 9 % UTC
Human APOE RNA [3]; HepG2 cells, electroporation, 24-hour treatment, 20,000 nM, Table 8
  APOE RNA (% UTC) 20,000 nM: 2 % UTC
Human APOE RNA [3]; reduction of human APOE RNA, HepG2 cells, electroporation, 24-hour treatment, Table 8
  IC50: 640 nM

## 1746809 (k[5mC]*dT[ms]kT*dG[ms]kG*dT[ms]dG[ms]dA[ms]dA[ms]dT*d[5mC]*dT*dT*dT*dA[ms]dT*dT[ms]kA*kA*kA; antisense) [Compound 1746809]
Human APOE RNA [4]; cortex, ICV dose 10 μg
  APOE RNA (% control) Cortex: 98 % control
Human APOE RNA [4]; cortex, ICV dose 30 μg
  APOE RNA (% control) Cortex: 89 % control
Human APOE RNA [4]; cortex, ICV dose 100 μg
  APOE RNA (% control) Cortex: 79 % control
Human APOE RNA [4]; cortex, ICV dose 300 μg
  APOE RNA (% control) Cortex: 57 % control
Human APOE RNA [4]; cortex, ICV dose 700 μg
  APOE RNA (% control) Cortex: 41 % control
Human APOE RNA [4]; [6]
  ED 50 (μg) Cortex: 446.6 µg
Human APOE RNA [4]; spinal cord, ICV dose 10 μg
  APOE RNA (% control) Spinal Cord: 105 % control
Human APOE RNA [4]; spinal cord, ICV dose 30 μg
  APOE RNA (% control) Spinal Cord: 92 % control
Human APOE RNA [4]; spinal cord, ICV dose 100 μg
  APOE RNA (% control) Spinal Cord: 59 % control
Human APOE RNA [4]; spinal cord, ICV dose 300 μg
  APOE RNA (% control) Spinal Cord: 48 % control
Human APOE RNA [4]; spinal cord, ICV dose 700 μg
  APOE RNA (% control) Spinal Cord: 64 % control
Human APOE RNA [4]; [7]
  ED 50 (μg) Spinal Cord: 652.7 µg
Human APOE RNA [5]; 112 days post-dose
  APOE RNA (% control) Cortex: 55 % control
  APOE RNA (% control) Spinal Cord: 86 % control
Human APOE RNA [5]; 140 days post-dose
  APOE RNA (% control) Cortex: 66 % control
  APOE RNA (% control) Spinal Cord: 107 % control
Human APOE RNA [3]; 5 nM, HepG2, electroporation, 24-hour treatment
  APOE RNA (% UTC): 91 % UTC
Human APOE RNA [3]; 33 nM, HepG2, electroporation, 24-hour treatment
  APOE RNA (% UTC): 98 % UTC
Human APOE RNA [3]; 82 nM, HepG2, electroporation, 24-hour treatment
  APOE RNA (% UTC): 74 % UTC
Human APOE RNA [3]; 205 nM, HepG2, electroporation, 24-hour treatment
  APOE RNA (% UTC): 81 % UTC
Human APOE RNA [3]; 512 nM, HepG2, electroporation, 24-hour treatment
  APOE RNA (% UTC): 54 % UTC
Human APOE RNA [3]; 1,280 nM, HepG2, electroporation, 24-hour treatment
  APOE RNA (% UTC): 35 % UTC
Human APOE RNA [3]; 3,200 nM, HepG2, electroporation, 24-hour treatment
  APOE RNA (% UTC): 33 % UTC
Human APOE RNA [3]; 8,000 nM, HepG2, electroporation, 24-hour treatment
  APOE RNA (% UTC): 23 % UTC
Human APOE RNA [3]; 20,000 nM, HepG2, electroporation, 24-hour treatment
  APOE RNA (% UTC): 14 % UTC
Human APOE RNA [3]; HepG2, electroporation, 24-hour treatment
  IC50: 840 nM
